# “Also recorded” adds a separate entry of the source. Like-named read-outs stand apart in the source and are kept apart here.
# Experiments:
# [1] = Dynamic vapor sorption (DVS) with XRPD of the post-DVS sample; type: physicochemical; conditions: for hygroscopicity based on DVS data: 5 to 95% RH; for moisture gain by DVS: adsorption 5 to 95% RH; for behaviour on desorption / form change by XRPD of post-DVS sample: desorption 95 to 5% RH
# Procedure, shortened: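 Sample (about 2-25 mg depending on run) held at 25° C. and stepped in 10% RH increments 5→95% RH (adsorption) then 95→5% RH (desorption). Each step advanced at 0.01% weight change (in 5 min for later runs) or after a maximum of 1 h or 90 min; percent weight change reported.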
# [2] = for recrystallization of non-crystalline material upon heating (XRPD): heated at ~110° C. for 10 minutes
# [3] = Vapor stress, RT
# Text: The sample was then centrifuged, while still warm, and the mother liquor was decanted. The isolated solids were air-dried and analyzed by XRPD.
# [4] = 93% RH, RT
# [5] = 25° C., listed as Non-crystalline 2C-B tartrate
# [6] = 25° C., listed as non-crystalline 2C-B tartrate
compound,measurement,setting,value
"COc1cc(CCN)c(OC)cc1Br.O=C(O)C(O)C(O)C(=O)O [non-crystalline 2C-B Tartrate, 4-bromo-2,5-dimethoxyphenethylamine (2C-B) tartrate]",hygroscopicity based on DVS data,[1]; [5],hygroscopic
same,hygroscopicity based on DVS data,[1]; [6],hygroscopic
same,moisture gain by DVS,[1]; [5],11.7%
same,moisture gain by DVS,[1]; [6],11.7%
same,moisture gain by DVS above 55% RH,[1]; above 55% RH,9.7%
same,behaviour on desorption / form change by XRPD of post-DVS sample,[1]; listed as Non-crystalline 2C-B tartrate,remained non-crystalline
same,behaviour on desorption / form change by XRPD of post-DVS sample,[1]; listed as non-crystalline 2C-B tartrate,remains non-crystalline
same,"DVS desorption weight loss, 95-5% RH","[1]; desorption, 95-5% RH, 25° C.",95-5% RH: 12.3% loss
same,post-DVS XRPD,"[1]; solids after DVS cycle, NC = non-crystalline, br pk = broad peak",NC + br pk (25°)
same,"DVS sorption, weight gain 5-55% RH","[1]; sorption, 5-55% RH, 25° C.",5-55% RH: 2.0% gain
same,DVS sorption total gain,"[1]; sorption, 5-95% RH, 25° C.",Total gain: 11.7%
same,"DVS sorption, weight gain 55-95% RH","[1]; sorption, 55-95% RH, 25° C.",55-95% RH: 9.7% gain
same,XRPD result after heat stress,"[2]; 60° C., 9 d",NC + br pk (23°)
same,XRPD result after heat stress,"[2]; 110° C., 10 min.",Tartrate (Form 1) +
same,recrystallization of non-crystalline material upon heating (XRPD),[2],recrystallizes to Tartrate (Form 1) upon heating; also recorded: crystallized to 2C-B Tartrate (Form 1)
same,recrystallization of non-crystalline material upon heating (XRPD),[2]; listed as non-crystalline tartrate,crystallization to Tartrate (Form 1) was observed by XRPD
same,XRPD result after vapor stress,[3]; EtOH,Tartrate (Form 1)
same,XRPD result after vapor stress,[3]; H2O,Tartrate (Form 1)
same,XRPD result after vapor stress,[3]; acetone,Tartrate (Form 1)
same,XRPD result after humidity stress,[4],Tartrate (Form 1)

# — patent US20230150920A1, “SALTS AND SOLID FORMS OF 4-BROMO-2,5-DIMETHOXYPHENETHYLAMINE” (priority 2021, published 2023)
